Usually IC50 stands for the midpoint of a concentration-inhibition curve.

Holding throughout (assay): biochemical
Holding throughout (parameters): radiometric methyltransferase assay with tritiated SAM, IC50

Test [1] addresses T1, BCDIN3D (Homo sapiens, UniProt Q7Z5W3).
T1 sequence (Q7Z5W3 1-292): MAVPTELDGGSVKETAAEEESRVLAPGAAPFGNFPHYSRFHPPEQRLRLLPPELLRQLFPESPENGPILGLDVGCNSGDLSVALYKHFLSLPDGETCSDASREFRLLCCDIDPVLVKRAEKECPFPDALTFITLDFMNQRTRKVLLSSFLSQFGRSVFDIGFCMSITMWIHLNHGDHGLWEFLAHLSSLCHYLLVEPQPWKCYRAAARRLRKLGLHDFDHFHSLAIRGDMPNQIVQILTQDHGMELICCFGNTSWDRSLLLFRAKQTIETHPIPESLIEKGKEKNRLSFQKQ

For test [2], the target named is T2, PRMT9 (Homo sapiens, UniProt Q6P2P2).
T2 sequence (Q6P2P2 1-845): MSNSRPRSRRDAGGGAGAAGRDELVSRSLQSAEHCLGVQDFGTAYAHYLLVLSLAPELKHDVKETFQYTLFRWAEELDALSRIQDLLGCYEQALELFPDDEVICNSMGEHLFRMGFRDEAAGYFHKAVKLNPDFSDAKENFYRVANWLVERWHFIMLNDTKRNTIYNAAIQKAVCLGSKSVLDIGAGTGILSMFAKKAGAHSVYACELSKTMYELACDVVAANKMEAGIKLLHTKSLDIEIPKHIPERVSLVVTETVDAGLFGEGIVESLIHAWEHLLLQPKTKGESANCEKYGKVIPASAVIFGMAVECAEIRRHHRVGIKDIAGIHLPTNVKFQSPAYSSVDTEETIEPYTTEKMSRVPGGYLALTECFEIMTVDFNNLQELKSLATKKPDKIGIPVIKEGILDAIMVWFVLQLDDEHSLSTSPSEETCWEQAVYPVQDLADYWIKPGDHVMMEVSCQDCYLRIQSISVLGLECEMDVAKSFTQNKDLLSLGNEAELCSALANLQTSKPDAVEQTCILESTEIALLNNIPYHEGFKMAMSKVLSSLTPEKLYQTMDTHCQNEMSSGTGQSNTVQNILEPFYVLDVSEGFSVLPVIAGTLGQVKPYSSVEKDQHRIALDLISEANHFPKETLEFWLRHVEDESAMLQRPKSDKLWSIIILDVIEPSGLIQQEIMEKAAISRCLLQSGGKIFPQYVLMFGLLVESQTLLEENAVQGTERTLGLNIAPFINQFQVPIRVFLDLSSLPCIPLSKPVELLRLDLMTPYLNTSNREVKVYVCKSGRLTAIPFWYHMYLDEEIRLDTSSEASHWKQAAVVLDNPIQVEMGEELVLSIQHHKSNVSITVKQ

Test [3] has as its target DOT1L (Homo sapiens, UniProt Q8TEK3).
Test [4] has as its target PRMT1 (Homo sapiens, UniProt Q99873).
Test [5] deals with PRMT6 (Homo sapiens, UniProt Q96LA8).
PRMT6, sequence (Q96LA8 whole entry): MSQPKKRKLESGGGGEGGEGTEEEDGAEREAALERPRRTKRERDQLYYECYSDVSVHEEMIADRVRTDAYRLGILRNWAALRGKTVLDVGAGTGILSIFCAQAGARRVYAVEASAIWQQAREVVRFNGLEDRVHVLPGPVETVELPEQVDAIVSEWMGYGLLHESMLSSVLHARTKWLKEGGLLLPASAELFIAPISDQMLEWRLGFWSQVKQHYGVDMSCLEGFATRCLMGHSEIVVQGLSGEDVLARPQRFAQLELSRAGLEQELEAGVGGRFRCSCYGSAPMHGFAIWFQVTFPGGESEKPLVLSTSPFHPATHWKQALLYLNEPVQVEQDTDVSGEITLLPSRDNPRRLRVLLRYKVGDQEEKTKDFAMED

DOT1L, sequence (Q8TEK3 whole entry): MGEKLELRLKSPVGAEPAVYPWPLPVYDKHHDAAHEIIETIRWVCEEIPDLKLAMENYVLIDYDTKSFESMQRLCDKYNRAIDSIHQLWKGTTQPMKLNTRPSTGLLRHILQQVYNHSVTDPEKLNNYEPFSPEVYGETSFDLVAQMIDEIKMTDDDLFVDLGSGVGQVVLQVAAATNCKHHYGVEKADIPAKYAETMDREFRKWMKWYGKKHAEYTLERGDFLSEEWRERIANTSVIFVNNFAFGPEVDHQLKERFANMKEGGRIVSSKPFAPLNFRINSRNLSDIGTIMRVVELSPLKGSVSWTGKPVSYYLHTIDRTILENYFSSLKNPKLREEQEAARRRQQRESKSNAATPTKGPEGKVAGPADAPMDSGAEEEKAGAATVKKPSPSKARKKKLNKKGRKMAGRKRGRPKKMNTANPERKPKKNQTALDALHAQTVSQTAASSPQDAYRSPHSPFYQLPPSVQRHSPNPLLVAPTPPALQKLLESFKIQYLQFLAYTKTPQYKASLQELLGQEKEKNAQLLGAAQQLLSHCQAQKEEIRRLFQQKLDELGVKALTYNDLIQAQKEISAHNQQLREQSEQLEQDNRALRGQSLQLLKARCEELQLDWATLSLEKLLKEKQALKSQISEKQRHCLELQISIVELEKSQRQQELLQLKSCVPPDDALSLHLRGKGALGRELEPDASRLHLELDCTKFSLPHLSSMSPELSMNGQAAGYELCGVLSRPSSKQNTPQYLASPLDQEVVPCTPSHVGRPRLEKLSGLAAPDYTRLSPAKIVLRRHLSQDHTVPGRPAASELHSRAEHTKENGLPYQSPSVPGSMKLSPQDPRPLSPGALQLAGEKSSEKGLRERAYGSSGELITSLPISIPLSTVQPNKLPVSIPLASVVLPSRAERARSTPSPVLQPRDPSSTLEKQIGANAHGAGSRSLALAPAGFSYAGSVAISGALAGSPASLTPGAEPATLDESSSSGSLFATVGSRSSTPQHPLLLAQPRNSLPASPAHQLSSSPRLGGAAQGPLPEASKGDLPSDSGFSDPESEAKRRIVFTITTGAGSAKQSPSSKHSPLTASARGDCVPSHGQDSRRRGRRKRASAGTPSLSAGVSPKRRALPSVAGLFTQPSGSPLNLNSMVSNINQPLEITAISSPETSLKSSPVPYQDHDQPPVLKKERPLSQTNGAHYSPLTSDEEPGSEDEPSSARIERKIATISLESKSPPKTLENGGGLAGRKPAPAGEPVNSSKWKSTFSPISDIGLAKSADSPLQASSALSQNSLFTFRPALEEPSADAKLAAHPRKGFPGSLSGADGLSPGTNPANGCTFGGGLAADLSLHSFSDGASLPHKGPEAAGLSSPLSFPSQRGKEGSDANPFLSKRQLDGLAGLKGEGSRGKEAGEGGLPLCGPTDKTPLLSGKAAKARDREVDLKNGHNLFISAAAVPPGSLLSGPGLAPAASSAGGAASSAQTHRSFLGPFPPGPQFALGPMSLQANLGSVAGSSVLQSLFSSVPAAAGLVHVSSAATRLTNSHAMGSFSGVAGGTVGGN
PRMT1, sequence (Q99873 whole entry): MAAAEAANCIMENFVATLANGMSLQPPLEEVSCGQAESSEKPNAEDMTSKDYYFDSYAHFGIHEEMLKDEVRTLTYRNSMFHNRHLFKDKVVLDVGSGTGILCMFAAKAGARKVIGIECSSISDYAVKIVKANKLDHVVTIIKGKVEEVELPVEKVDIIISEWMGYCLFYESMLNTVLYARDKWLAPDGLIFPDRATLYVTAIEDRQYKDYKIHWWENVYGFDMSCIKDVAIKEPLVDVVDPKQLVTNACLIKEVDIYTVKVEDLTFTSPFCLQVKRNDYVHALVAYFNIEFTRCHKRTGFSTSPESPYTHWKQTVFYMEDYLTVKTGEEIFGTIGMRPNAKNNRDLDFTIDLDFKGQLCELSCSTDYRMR

For `Nc1ncnc2c1ncn2[C@@H]1O[C@H](CSCCCCNCc2cccc(-c3ccc(Cl)cc3)c2)[C@@H](O)[C@H]1O` [SGC8158], the IC50 in test [1] came to 1100 nM; in test [2], 160 nM; in test [3], 1700 nM; in test [4], 12000 nM; in test [5] it was 15000 nM.

For the origin of these results see publication PMC7224190, “Pharmacological inhibition of PRMT7 links arginine monomethylation to the cellular stress response” (Nature Communications, 2020).
